According to patent publication US12605461B2, “Hydrogel compositions and uses thereof” (priority 2019, dated 2026):

Tests used:
BT474 cells = assay: Drug screening, BT474 (RealTime-Glo MT); type: cell-based, human
Experimental: (§1) The following example describes experiments conducted to calculate IC50 values using a non-linear fit in Graphpad Prism by GraphPad Software Inc.
(§2) Cells grown in 2D were dosed starting after 24 h with either EHT-1864, AZD6482, Maritoclax, ZSTK474, Afatinib, TW-37, ABT-199, ABT-263 and Temsirolimus between 50 nM and up to 20 μM using an Hewlett-Packard (HP) D300 digital dispenser containing up to 0.2% DMSO then treated again 48 h following the first dose and ended after 72 h of treatment. Cells grown in 3D were dosed after 14 days with up to 0.2% DMSO every 48 h for 7 days. Cell viability was assessed by removing media and replacing it with 100 μL of sterile RealTime-Glo MT (Promega) which was diluted 1000× in media warmed to 37° C. After 1 h luminescence was detected using a Tecan microplate reader (Life Sciences) with 1 second integration time. Cell viability was calculated by subtracting background luminescence from all groups; treatment was compared to control wells, which received up to 0.2% DMSO. Data represents 3 independent replicates consisting of different cell passages for each condition to calculate the mean and standard deviation of cell viability.

[1] = tested on: tumor derived mammary luminal epithelial cells; assay: Drug screening with primary cells; type: cell-based; conditions: human patient tumour luminal B breast cancer cells
Experimental: as §2, with “dosed” for “dosed starting”, “Maritoclax” for “either EHT-1864, AZD6482, Maritoclax, ZSTK474, Afatinib, TW-37, ABT-199, ABT-263 and Temsirolimus”, “10” for “50”, “DMSO. IC50 values were calculated using a non-linear fit in Graphpad Prism by GraphPad Software Inc.” for “DMSO.”

MDA-MB-468 cells [2] = assay: Drug screening, MDA-MB-468 (PrestoBlue); type: cell-based; conditions: Homo sapiens, treated 7 days
Experimental: as §1
Cells were dosed with 0.1, 1, 5, 20 and 50 μM Erlotinib-HCl containing 0.27% DMSO every 48 h for 7 days. Cell viability was assessed by removing media and replacing it with 150 μL of sterile, PrestoBlue which was diluted 10× in media warmed to 37° C. After 2.5 hours fluorescence was detected using a Tecan microplate reader (Life Sciences) by exciting at 570 nm and detected at 590 nm. Cell viability was calculated by subtracting background fluorescence from all groups; treatment was compared to control wells, which received 0.27% DMSO. Data represents 3 independent replicates consisting of different cell passages for each condition to calculate the mean and standard deviation of cell viability.

MDA-MB-468 cells [3] = assay: RGDOA cell adhesion assay; type: cell-based, human; conditions: RGDOA 250-1000 μM conjugated to HA-oxime hydrogels for 1 hour
Experimental: RGDOA Cell Adhesion assay: […] After gelling for 2 h at 37° C., 25 μL of 125, 250, 500, and 1000 μM RGDOA solutions in media described above were added to hydrogels. After treatment with RGDOA solutions for 1 h at 37° C., the media was removed and gels were washed three times with media at 25 μL per well. MDA-MB-468 cells were seeded on the surface of the hydrogels at a density of 3000 cells well^−1 in 25 μL of media and incubated for 30 min. Media was gently removed by pipette and replaced with PBS cooled to 4° C. […] Cells nuclei were stained with Hoechst 33342, 1/250 in PBS, 25 μL well^−1 for 4 h. Images were obtained using an Olympus confocal microscope at 10× magnification with z-stacks of 12 μm step size. Cell number was quantified using spot identification in Imaris 8 software by Bitplane. The fold change in cell number was calculated from control hydrogels containing no RGDOA peptide. A minimum of 3 independent replicates consisting of different cell passages were performed for each condition.

Compound: Cc1cc([C@@H](C)Nc2ccccc2C(=O)O)c2nc(N3CCOCC3)cc(=O)n2c1 [AZD6482]
- responsiveness in HA-oxime versus Matrigel or 2D TCPS (BT474 cells; BT474 cells): more responsive

Compound: O=c1cc(CN2CCOCC2)occ1OCCCCCSc1ccnc2cc(C(F)(F)F)ccc12 [EHT-1864]
- responsiveness in HA-oxime versus Matrigel (BT474 cells; BT474 cells): more responsive

Compound: FC(F)c1nc2ccccc2n1-c1nc(N2CCOCC2)nc(N2CCOCC2)n1 [ZSTK474]
- cell response between HA-oxime, Matrigel and 2D TCPS (BT474 cells; BT474 cells): cell response did not always differ between the 3 culture conditions

Compound: O=C(c1ccccc1O)c1[nH]c(Cl)c(Cl)c1-n1c(C(=O)c2ccccc2O)cc(Cl)c1Cl [maritoclax]
- sensitivity in HA-oxime versus 2D TCPS (BT474 cells; BT474 cells): over tenfold more sensitive
- IC50 (BT474 cells; BT474 cells cultured in 2D TCPS): 5.5 µM
- IC50 (BT474 cells; BT474 cells cultured in HA-oxime): 0.59 µM
- sensitivity in 3D HA-oxime versus 2D TCPS [1]: significantly more sensitive

Compound: C#Cc1cccc(Nc2ncnc3cc(OCCOC)c(OCCOC)cc23)c1 [erlotinib]
- IC50 (MDA-MB-468 cells [2]; MDA-MB-468, MDA-MB-468 cultured in 3D (Matrigel, HA-oxime+/−Ln) 21 days): ~4.5 µM
- IC50 (MDA-MB-468 cells [2]; MDA-MB-468, MDA-MB-468 grown on 2D TCPS 21 days): 37.6 µM

Compound: Acetyl-GRGDSPASSKK(OA)G [RGDOA]
- number of adherent MDA-MB-468 cells (MDA-MB-468 cells [3]): increase in the number of adherent cells
